Data on 68 molecules can be found in paper PMC7802075 (ACS Infectious Diseases, 2020).

Structures are written as SMILES. Structures can show the parent of a compound that is named as a salt. Where a SMILES comes first, the peptide text is derived from it.

As a reminder, the inhibition is the change of the read-out against control, counted positive when it falls.

The first assay has as its target T1, LmjIPCS (inositol phosphorylceramide synthase from L. major) (Leishmania major, UniProt E9AFX2).
T1 sequence (E9AFX2 1-338): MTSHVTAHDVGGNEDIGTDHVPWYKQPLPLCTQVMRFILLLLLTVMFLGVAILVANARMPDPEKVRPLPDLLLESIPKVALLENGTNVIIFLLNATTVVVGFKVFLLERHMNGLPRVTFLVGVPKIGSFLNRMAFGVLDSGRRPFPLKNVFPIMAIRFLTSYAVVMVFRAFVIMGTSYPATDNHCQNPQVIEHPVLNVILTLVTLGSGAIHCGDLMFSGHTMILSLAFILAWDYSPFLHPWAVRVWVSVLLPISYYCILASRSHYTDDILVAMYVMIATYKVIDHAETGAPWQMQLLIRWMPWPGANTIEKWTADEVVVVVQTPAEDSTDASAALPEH
Put plainly: biochemical. Also on record: inhibition: dose or concentration left out as unconfirmed.
Settings: not given
Type of assay: biochemical.
Turning to `C[C@@H]1[C@H](O)[C@@H](C)/C=C/C=C/CC/C=C/C=C/C=C/C=C/C(O[C@H]2O[C@H](C)[C@@H](O)[C@H](N)[C@@H]2O)CC2O[C@](O)(CC(O)C(O)CCC(O)CC(O)CC(O)CC(=O)O[C@H]1C)CC(O)C2C(=O)O` (some centres unmarked) [NYSTATIN], the “20mM inhibition LmjIPCS” value came out at 32%.

In the case of `CC(=O)O.CNC(=N)NCCC[C@H](N)C(=O)O` [Ng-METHYL-L-ARGININE ACETATE], the “20mM inhibition LmjIPCS” value came to 0.168%.

Take `CCCCCCCCCCC[C@@H](C[C@@H]1OC(=O)[C@H]1CCCCCC)OC(=O)[C@H](CC(C)C)NC=O` [ORLISTAT]: the “20mM inhibition LmjIPCS” value was 66%.

On to `NCCc1cc(O)c(O)cc1O` [OXIDOPAMINE], for which the “20mM inhibition LmjIPCS” value is recorded as 65%.

For the molecule `CCCCC1C(=O)N(c2ccccc2)N(c2ccc(O)cc2)C1=O` (centres unmarked) [OXYPHENBUTAZONE], the “20mM inhibition LmjIPCS” value came to 45%.

Turning to `CN1CCCN=C1COC(=O)C(O)(c1ccccc1)C1CCCCC1` (centres unmarked) [OXYPHENCYCLIMINE], the “20mM inhibition LmjIPCS” value came to 53%.

Take `COc1cc2c(cc1OC)-c1cc3ccc(OC)c(OC)c3c[n+]1CC2` [PALMATINE]: the “20mM inhibition LmjIPCS” value was 8%.

Regarding `CCOc1ccc(NC(C)=O)cc1` [PHENACETIN], the “20mM inhibition LmjIPCS” value is 38%.

On to `O=C(/C=C/c1ccc(O)c(O)c1)OCCc1ccccc1` [PHENETHYL CAFFEATE (CAPE)], for which the “20mM inhibition LmjIPCS” value is on record as 39%.

Turning to `CC(C)=CC1C(C(=O)OCc2cccc(Oc3ccccc3)c2)C1(C)C` (centres unmarked) [PHENOTHRIN], the “20mM inhibition LmjIPCS” value is given as 39%.

Still in this assay, the particulars now being: NINDS set screen, single concentration printed as 20mM.
In the case of `CC(CCc1ccccc1)NC(C)C(O)c1ccc(O)cc1` (centres unmarked) [NYLIDRIN HYDROCHLORIDE], the “20mM inhibition LmjIPCS” value turned out to be 54%.

Turning to `COc1ccc(C(=O)c2ccccc2)c(O)c1` [OXYBENZONE], the “20mM inhibition LmjIPCS” value is listed as 34%.

On to `N#Cc1ccc2c(c1)N(CCCN1CCC(O)CC1)c1ccccc1S2` [PERICIAZINE], for which the “20mM inhibition LmjIPCS” value is listed as 52%.

With `Nc1ccc(/N=N/c2ccccc2)c(N)n1` [PHENAZOPYRIDINE], the “20mM inhibition LmjIPCS” value was 52%.

Staying with this assay, now noted: NINDS set screen; read-out: inhibition LmjIPCS.
As to `NCC(O)c1ccc(O)cc1` (centres unmarked) [OCTOPAMINE HYDROCHLORIDE], the inhibition stood at 33%.

With `Cn1c(=O)[nH]c2ncn(C)c2c1=O` [PARAXANTHINE], the inhibition is -5.66%.

For `O=C1c2ccccc2C(=O)C1c1ccccc1` [PHENINDIONE], the inhibition was 21%.

For `CN(C)CCC(c1ccccc1)c1ccccn1` (centres unmarked) [PHENIRAMINE], the inhibition was -1%.

As to `CNC[C@H](O)c1cccc(O)c1` [PHENYLEPHRINE], the inhibition was 25%.

As to `O=C(CCc1ccc(O)cc1)c1c(O)cc(O)cc1O[C@@H]1O[C@H](CO)[C@@H](O)[C@H](O)[C@H]1O` [PHLORIDZIN], the inhibition was determined as 15%.

For `CC[C@@H]1C(=O)OC[C@@H]1Cc1cncn1C` [PILOCARPINE], the inhibition was -4.6%.

As for `COc1c(OC)c2occc2c2oc(=O)ccc12` [PIMPINELLIN], the inhibition is 18%.

The assay is the same for the next values; noted with them: read-out: 20mM inhibition LmjIPCS.
Take `NC[C@H](O)c1ccc(O)c(O)c1` [NOREPINEPHRINE]: the inhibition at 20000 µM stood at 12%.

Regarding `C#C[C@]1(OC(C)=O)CC[C@H]2[C@@H]3CCC4=CC(=O)CC[C@@H]4[C@H]3CC[C@@]21C` [NORETHINDRONE ACETATE], the inhibition at 20000 µM is 30%.

In the case of `C#C[C@]1(O)CC[C@H]2[C@@H]3CCC4=C(CCC(=O)C4)[C@H]3CC[C@@]21C` [NORETHYNODREL], the inhibition at 20000 µM is 21%.

Take `c1ccc2c(c1)[nH]c1cnccc12` [NORHARMAN]: the inhibition at 20000 µM came out at 17%.

Regarding `CO[C@@H]1[C@@H](OC(N)=O)[C@@H](O)[C@H](Oc2ccc3c(O)c(NC(=O)c4ccc(O)c(CC=C(C)C)c4)c(=O)oc3c2C)OC1(C)C` [NOVOBIOCIN], the inhibition at 20000 µM is 16%.

On to `CO[C@H]1C[C@H](O[C@H]2[C@H](C)[C@@H](O[C@@H]3O[C@H](C)C[C@H](N(C)C)[C@H]3O)[C@@H](C)C[C@@]3(CO3)C(=O)[C@H](C)[C@@H](O)[C@@H](C)[C@@H](C)OC(=O)[C@@H]2C)O[C@@H](C)[C@@H]1O` [OLEANDOMYCIN], for which the inhibition at 20000 µM turned out to be 1.17%.

Turning to `CCCc1nc(C(C)(C)O)c(C(=O)OCc2oc(=O)oc2C)n1Cc1ccc(-c2ccccc2-c2nnn[nH]2)cc1` [OLMESARTAN MEDOXOMIL], the inhibition at 20000 µM was found to be 21%.

On to `C[C@@H]1O[C@@H](O[C@H]2C[C@@H](O)[C@]3(CO)[C@H]4[C@H](O)C[C@]5(C)[C@@H](C6=CC(=O)OC6)CC[C@]5(O)[C@@H]4CC[C@]3(O)C2)[C@H](O)[C@H](O)[C@H]1O` [OUABAIN], for which the inhibition at 20000 µM was 1.15%.

`Cc1onc(-c2ccccc2)c1C(=O)N[C@@H]1C(=O)N2[C@@H]1SC(C)(C)[C@@H]2C(=O)O` [OXACILLIN]: the inhibition at 20000 µM was 16%.

As to `O=C1CCCN1CC#CCN1CCCC1` [OXOTREMORINE], the inhibition at 20000 µM is 4%.

`Oc1cccc2cccnc12` [OXYQUINOLINE]: the inhibition at 20000 µM was 14%.

`CN(C)[C@@H]1C(O)=C(C(N)=O)C(=O)[C@@]2(O)C(O)=C3C(=O)c4c(O)cccc4[C@@](C)(O)[C@H]3[C@H](O)[C@@H]12` [OXYTETRACYCLINE]: the inhibition at 20000 µM worked out at 18%.

For the molecule `COc1ccc(C(C)=O)c(O)c1` [PAEONOL], the inhibition at 20000 µM came out at 9%.

As to `COc1ccc(Cc2nccc3cc(OC)c(OC)cc23)cc1OC` [PAPAVERINE], the inhibition at 20000 µM was found to be 21%.

As to `Oc1ccc(Cl)cc1` [PARACHLOROPHENOL], the inhibition at 20000 µM is 12%.

For `O=C1C=C2C(=CCOC2O)O1` (centres unmarked) [PATULIN], the inhibition at 20000 µM came to 0.294%.

`CC(C)(S)[C@@H](N)C(=O)O` [PENICILLAMINE]: the inhibition at 20000 µM came out at 20%.

`CC1(C)S[C@@H]2[C@H](NC(=O)COc3ccccc3)C(=O)N2[C@H]1C(=O)O` [PENICILLIN V]: the inhibition at 20000 µM stood at 3.31%.

Take `C1CCc2nnnn2CC1` [PENTETRAZOL]: the inhibition at 20000 µM was 16%.

On to `C=C(C)[C@@H]1CC=C(C(=O)O)CC1` [PERILLIC ACID (-)], for which the inhibition at 20000 µM came out at 12%.

Regarding `C=C(C)[C@@H]1CC=C(CO)CC1` [PERILLYL ALCOHOL], the inhibition at 20000 µM was determined as 11%.

In the case of `CCC[C@H](N[C@@H](C)C(=O)N1[C@H](C(=O)O)C[C@@H]2CCCC[C@@H]21)C(=O)OCC` [PERINDOPRIL], the inhibition at 20000 µM stood at 2%.

With `CO[C@H]1[C@H](O)[C@H](O[C@H]2CC[C@@]3(C=O)[C@H](CC[C@@H]4[C@@H]3CC[C@]3(C)[C@@H](C5=CC(=O)OC5)CC[C@]43O)C2)O[C@@H](C)[C@@H]1O` [PERUVOSIDE], the inhibition at 20000 µM came to 12%.

As to `NNCCc1ccccc1` [PHENELZINE], the inhibition at 20000 µM is 27%.

On to `CC(COc1ccccc1)N(CCCl)Cc1ccccc1` (centres unmarked) [PHENOXYBENZAMINE], for which the inhibition at 20000 µM was determined as 31%.

With `N[C@@H](Cc1ccccc1)C(=O)N[C@@H](Cc1ccc(O)cc1)C(=O)O` [PHENYLALANYLTYROSINE] (H-Phe-Tyr-OH), the inhibition at 20000 µM was found to be 7.42%.

For `O=C(O)CCCc1ccccc1` [PHENYLBUTYRATE], the inhibition at 20000 µM was found to be 1.15%.

Consider `CNC(=O)Oc1ccc2c(c1)[C@]1(C)CCN(C)[C@@H]1N2C` [PHYSOSTIGMINE], for which the inhibition at 20000 µM came to 15%.

On to `COc1cc([C@@H]2c3cc4c(cc3[C@H](O)[C@H]3COC(=O)[C@@H]23)OCO4)cc(OC)c1OC` [PICROPODOPHYLLOTOXIN], for which the inhibition at 20000 µM is 7.47%.

On to `C=C(C)[C@@H]1[C@H]2OC(=O)[C@@H]1[C@]1(O)C[C@H]3O[C@]34C(=O)O[C@H]2[C@]14C` [PICROTOXININ], for which the inhibition at 20000 µM worked out at 13%.

As to `CC(C)NCC(O)COc1cccc2[nH]ccc12` (centres unmarked) [PINDOLOL], the inhibition at 20000 µM is 16%.

Staying with this assay, now noted: read-out: inhibition LmjIPCS.
Consider `CCn1cc(C(=O)O)c(=O)c2cc(F)c(N3CCNCC3)cc21` [NORFLOXACIN], for which the inhibition came to 17%.

For `COc1ccc2c(c1OC)C(=O)O[C@@H]2[C@H]1c2c(cc3c(c2OC)OCO3)CCN1C` [NOSCAPINE], the inhibition is 19%.

Consider `CC1COc2c(N3CCN(C)CC3)c(F)cc3c(=O)c(C(=O)O)cn1c23` (centres unmarked) [OFLOXACIN], for which the inhibition was 5%.

`O=C(O)CCc1nc(-c2ccccc2)c(-c2ccccc2)o1` [OXAPROZIN]: the inhibition worked out at 5.6%.

As to `NC(=O)N1c2ccccc2CC(=O)c2ccccc21` [OXCARBAZEPINE], the inhibition is -4%.

Consider `CC(=O)O[C@H]1C(=O)[C@@]2(C)[C@H]([C@H](OC(=O)c3ccccc3)[C@]3(O)C[C@H](OC(=O)[C@H](O)[C@@H](NC(=O)c4ccccc4)c4ccccc4)C(C)=C1C3(C)C)[C@]1(OC(C)=O)CO[C@@H]1C[C@@H]2O` [PACLITAXEL], for which the inhibition is 0.0705%.

As for `COc1cc2c(cc1OC)-c1cc3ccc(OC)c(OC)c3c[n+]1CC2` [PALMATINE CHLORIDE], the inhibition was 16%.

In the case of `CC(=O)CCCCn1c(=O)c2c(ncn2C)n(C)c1=O` [PENTOXIFYLLINE], the inhibition stood at 5.62%.

In the case of `C[C@@]12C[C@@]3(O)O[C@@H](O1)[C@]1(COC(=O)c4ccccc4)[C@H]3C[C@@]12O[C@@H]1O[C@H](CO)[C@@H](O)[C@H](O)[C@H]1O` [PEONIFLORIN], the inhibition is 12%.

Turning to `C1CCC(C(CC2CCCCN2)C2CCCCC2)CC1` (centres unmarked) [PERHEXILINE], the inhibition was determined as 12%.

Turning to `OCCN1CCN(CCCN2c3ccccc3Sc3ccc(Cl)cc32)CC1` [PERPHENAZINE], the inhibition stood at 0.226%.

As to `O=C1NC(=O)C(c2ccccc2)(c2ccccc2)N1` [PHENYTOIN], the inhibition stood at 14%.

Turning to `COc1cc(O)c2c(c1)C(=O)c1cc(C)cc(O)c1C2=O` [PHYSCION], the inhibition is 18%.

The assay is the same for the next values; noted with them: screening of NINDS set, sheet Screen 1; read-out: inhibition LmjIPCS.
As to `COC(=O)Nc1nc2ccc([S+]([O-])c3ccccc3)cc2[nH]1` (centres unmarked) [OXFENDAZOLE], the inhibition was found to be 10%.

Regarding `C[N+]1(CCCCC[N+]2(C)CCCC2)CCCC1` [PENTOLINIUM], the inhibition was 11%.
